Assay [1] relates to CHO-RMc4luc cells. The assay can be described thus: Alternate glucocorticoids vs. dexamethasone in the non-starved CHO-RMc4 assay. The assay is classed as cell-based, Chinese hamster. Conditions: for signal intensity (RLU) compared to 40 μM dexamethasone: FIG. 17. The method, then: The data was collected in accordance with the protocol outlined in Example 17. The data was calculated as the difference (Δ) in RLU values or SRR % values for each glucocorticoid (GC) concentration by subtracting the RLU value or SRR % value for the Normal control at that concentration from the RLU value or SRR % value for the Positive control at that concentration, respectively.
Four GCs were examined in this study: i) Prednisone (Sigma); ii) Hydrocortisone (Sigma); iii) Fluticasone Propionate (Sigma); and iv) Cortisone (Sigma). A stock concentration (100 mM) of each GC was made in DMSO. 1:10 (10 mM) and 1:100 (1 mM) dilutions, in DMSO, were then made from the 100 mM stock. All DMSO/GC stocks were clear with no visible precipitate.
Growth Media containing different concentrations of each GC were made as follows: i) 100 μM GC Medium: 5 μL of 100 mM GC Stock+5 mL SR097 (w/o Dex); ii) 50 μM GC Medium: 2.5 μL of 100 mM GC Stock+5 mL SR097 (w/o Dex); iii) 10 μM GC Medium: 5 μL of 10 mM GC Stock+5 mL SR097 (w/o Dex); iii) 1 μM GC Medium: 5 μL of 1 mM GC Stock+5 mL SR097 (w/o Dex); and iv) 0.1 μM GC Medium: 0.5 μL of 1 mM GC Stock+5 mL SR097 (w/o Dex). […] Additional controls included Growth Medium containing 1 μl/ml dimethylsulfoxide (DMSO) as a solvent control and Growth Medium without any glucocorticoids.
Each assay was performed by using two (2) microwell plates for each glucocorticoid tested. The sample layouts for each plate are identified below: […]

Assay [2] deals with CHO-RMc4luc cells. The assay can be described thus: Effect of dexamethasone on starved CHO-RMc4luc cells (luciferase). It is filed as cell-based, Chinese hamster. Conditions: for % of S/B, Patient #18 Serum: 0 uM = 100; for RLU, Patient #18 Serum, Average / S/B, Patient #18 Serum / RLU, Patient #18 Serum, Test 1-3 / RLU, Reference Serum, Avg / RLU, Reference Serum, Test 1-3: starved cells; for RLU, Patient #18 Serum, Test 1-3 / RLU, Reference Serum, Test 1-3: listed as DEX. The procedure: CHO-Rluc (041307A) and CHO-RMc4luc (062707, P8, 3e6/ml) cells were each brought up in 5 ml CHO growth media.
The cells were then rinsed with reaction buffer and serum (diluted 1:11) was added to 100 μl of reaction buffer already in the well. Serums used were: i) reference 121506R; ii) PC 121506P; and iii) patient #18 TSI serum.
After 4 hours of induction the plates were lysed with 75 ul of Bright Glo®, lysed for 5 minutes, and then read on a Veritas luminometer.

[3] abbreviates: glucocorticoid 0.1 μM in Growth Medium.
Setting [4] is: glucocorticoid 1 μM in Growth Medium.
The mark [5] stands for this setting: glucocorticoid 10 μM in Growth Medium.
[6] abbreviates: glucocorticoid 50 μM in Growth Medium.
Where [7] appears, read: glucocorticoid 100 μM in Growth Medium.
Setting [8] is: 40 μM in Growth Medium (control).

The source of these data is patent US8563257B2, “Sensitive and rapid methods of using chimeric receptors to identify autoimmune disease and assess disease severity” (Diagnostic Hybrids, Inc., priority 2000, dated 2013).

Structures are written as SMILES. “And” between values parts separate entries of the source, which are not always exact repeats. Equal entries are not always repeated. “Also recorded” adds a separate entry of the source.

With `C[C@]12CCC(=O)C=C1CC[C@@H]1[C@@H]2C(=O)C[C@@]2(C)[C@H]1CC[C@]2(O)C(=O)CO` [Cortisone], the “signal intensity (RLU) compared to 40 μM dexamethasone” value with CHO-RMc4luc cells [1] is recorded as “equivalent to dexamethasone; also recorded: equal signal intensities”. Besides, the “Δ (positive - normal) RLU” value came to 10494 RLU in the assay with CHO-RMc4luc cells [1] (setting [3]); 9474 RLU with CHO-RMc4luc cells [1] (setting [4]); 9847 RLU in the assay on CHO-RMc4luc cells [1] (setting [5]); 8738 RLU in the assay on CHO-RMc4luc cells [1] (setting [6]); 8106 RLU in the assay on CHO-RMc4luc cells [1] (setting [7]). The “Δ (positive - normal) SRR % s” value is on record as 169% in the assay on CHO-RMc4luc cells [1] (setting [3]); 151% with CHO-RMc4luc cells [1] (setting [4]); 151% in the assay with CHO-RMc4luc cells [1] (setting [5]); 162% in the assay on CHO-RMc4luc cells [1] (setting [6]); 176% in the assay on CHO-RMc4luc cells [1] (setting [7]).
For `C[C@@H]1C[C@H]2[C@@H]3CCC4=CC(=O)C=C[C@]4(C)[C@@]3(F)[C@@H](O)C[C@]2(C)[C@@]1(O)C(=O)CO` [Dexamethasone, dexamethasone], in the assay with CHO-RMc4luc cells [2] (DEX 12.5 uM), the “% of S/B, Patient #18 Serum” value amounted to 180%; the “RLU, Patient #18 Serum, Average” value came out at 5165 RLU; the “S/B, Patient #18 Serum” value is listed as 39.8; the “RLU, Patient #18 Serum, Test 1-3” value is 4710 RLU and 5456 RLU and 5330 RLU. Besides, in the assay with CHO-RMc4luc cells [2] (DEX 25 uM), the “% of S/B, Patient #18 Serum” value worked out at 183%; the “RLU, Patient #18 Serum, Average” value came to 5194 RLU; the “RLU, Reference Serum, Avg” value was found to be 127 RLU; the “S/B, Patient #18 Serum” value worked out at 40.6. In addition, in the assay with CHO-RMc4luc cells [2] (DEX 25 uM), the “RLU, Patient #18 Serum, Test 1-3” value was 5172 RLU and 5151 RLU and 5260 RLU; the “RLU, Reference Serum, Test 1-3” value was 129 RLU and 132 RLU. Moreover, in the assay on CHO-RMc4luc cells [2] (DEX 40 uM), the “% of S/B, Patient #18 Serum” value is 182%; the “RLU, Patient #18 Serum, Average” value is 5092 RLU; the “RLU, Reference Serum, Avg” value is 126 RLU; the “S/B, Patient #18 Serum” value is 40.4. Further, in the assay with CHO-RMc4luc cells [2] (DEX 40 uM), the “RLU, Patient #18 Serum, Test 1-3” value is 5039 RLU and 5198 RLU and 5038 RLU; the “RLU, Reference Serum, Test 1-3” value amounted to 128 RLU. In addition, in the assay with CHO-RMc4luc cells [2] (DEX 50 uM), the “% of S/B, Patient #18 Serum” value came to 181%; the “RLU, Patient #18 Serum, Average” value is listed as 5023 RLU; the “RLU, Reference Serum, Avg” value came out at 125 RLU; the “S/B, Patient #18 Serum” value is listed as 40.1. In the assay on CHO-RMc4luc cells [2] (DEX 50 uM), the “RLU, Patient #18 Serum, Test 1-3” value is 4861 RLU and 5298 RLU and 4909 RLU; the “RLU, Reference Serum, Test 1-3” value was found to be 135 RLU. Moreover, in the assay with CHO-RMc4luc cells [2] (DEX 100 uM), the “% of S/B, Patient #18 Serum” value came to 140%; the “RLU, Patient #18 Serum, Average” value came to 3492 RLU; the “RLU, Reference Serum, Avg” value stood at 112 RLU; the “S/B, Patient #18 Serum” value stood at 31.1. Besides, the “RLU, Patient #18 Serum, Test 1-3” value with CHO-RMc4luc cells [2] (DEX 100 uM) is 3542 RLU and 3414 RLU and 3521 RLU. Also, in the assay with CHO-RMc4luc cells [2] (DEX 12. uM), the “RLU, Reference Serum, Avg” value came to 129 RLU; the “RLU, Reference Serum, Test 1-3” value was 129 RLU and 141 RLU. In the assay on CHO-RMc4luc cells [1] (setting [8]), the “Δ (positive - normal) RLU” value is given as 9375 RLU and the “Δ (positive - normal) SRR % s” value came out at 282%.
Turning to `CCC(=O)O[C@]1(C(=O)SCF)[C@H](C)C[C@H]2[C@@H]3C[C@H](F)C4=CC(=O)C=C[C@]4(C)[C@@]3(F)[C@@H](O)C[C@@]21C` [Fluticasone Proprionate, Fluticasone Propionate], the “signal intensity (RLU) compared to 40 μM dexamethasone” value with CHO-RMc4luc cells [1] is reported as “equal signal intensities”. Moreover, the “Δ (positive - normal) RLU” value was determined as 9768 RLU with CHO-RMc4luc cells [1] (setting [3]); 8806 RLU with CHO-RMc4luc cells [1] (setting [4]); 8774 RLU in the assay on CHO-RMc4luc cells [1] (setting [5]); 6996 RLU in the assay with CHO-RMc4luc cells [1] (setting [6]); 6366 RLU with CHO-RMc4luc cells [1] (setting [7]). The “Δ (positive - normal) SRR % s” value is listed as 161% with CHO-RMc4luc cells [1] (setting [3]); 148% in the assay on CHO-RMc4luc cells [1] (setting [4]); 168% with CHO-RMc4luc cells [1] (setting [5]); 137% with CHO-RMc4luc cells [1] (setting [6]); 155% in the assay with CHO-RMc4luc cells [1] (setting [7]).
For `C[C@]12CCC(=O)C=C1CC[C@@H]1[C@@H]2[C@@H](O)C[C@@]2(C)[C@H]1CC[C@]2(O)C(=O)CO` [Hydrocortisone], the “signal intensity (RLU) compared to 40 μM dexamethasone” value in the assay with CHO-RMc4luc cells [1] is given as “equivalent to dexamethasone; also recorded: equal signal intensities”. Also, the “Δ (positive - normal) RLU” value was 9889 RLU in the assay on CHO-RMc4luc cells [1] (setting [3]); 9149 RLU with CHO-RMc4luc cells [1] (setting [4]); 9757 RLU in the assay with CHO-RMc4luc cells [1] (setting [5]); 8950 RLU with CHO-RMc4luc cells [1] (setting [6]); 8348 RLU with CHO-RMc4luc cells [1] (setting [7]). Besides, the “Δ (positive - normal) SRR % s” value with CHO-RMc4luc cells [1] (setting [3]) was 158%; in the assay with CHO-RMc4luc cells [1] (setting [4]) it was 155%; with CHO-RMc4luc cells [1] (setting [5]) it was 153%; with CHO-RMc4luc cells [1] (setting [6]) it was 178%; in the assay with CHO-RMc4luc cells [1] (setting [7]), 180%.
Take `C[C@]12C=CC(=O)C=C1CC[C@@H]1[C@@H]2C(=O)C[C@@]2(C)[C@H]1CC[C@]2(O)C(=O)CO` [Prednisone]: the “signal intensity (RLU) compared to 40 μM dexamethasone” value in the assay on CHO-RMc4luc cells [1] is “equal signal intensities”. Moreover, the “Δ (positive - normal) RLU” value is reported as 8717 RLU in the assay on CHO-RMc4luc cells [1] (setting [3]), 8219 RLU in the assay with CHO-RMc4luc cells [1] (setting [4]), 8429 RLU with CHO-RMc4luc cells [1] (setting [5]) and 8107 RLU with CHO-RMc4luc cells [1] (setting [6]). For the same compound, the “Δ (positive - normal) SRR % s” value was found to be 150% in the assay on CHO-RMc4luc cells [1] (setting [3]), 133% in the assay on CHO-RMc4luc cells [1] (setting [4]), 142% in the assay on CHO-RMc4luc cells [1] (setting [5]) and 165% in the assay with CHO-RMc4luc cells [1] (setting [6]).
